Results reported in the NIST ThermoML archive (doi:10.1016/j.fluid.2014.09.014).

Test: refractive index (other wavelength) (dimensionless); xn = mol fraction of the nth substance listed
Conditions: 101 kPa, Liquid, Standard Abbe refractometry

CC(C)OC(C)C [diisopropyl ether] + CC(C)O
refractive index
Conditions	Wavelength=404.7 nm	Wavelength=435.8 nm	Wavelength=486.1 nm	Wavelength=546.1 nm	Wavelength=587.6 nm	Wavelength=589.3 nm	Wavelength=632.8 nm	Wavelength=644 nm	Wavelength=706.5 nm
313.15 K, x1 = 0.0277	–	–	–	–	–	1.36835	1.36708	1.36678	1.36533
313.15 K, x1 = 0.0507	–	–	–	–	–	1.36828	1.367	1.3667	1.36524
313.15 K, x1 = 0.051	–	–	–	–	–	1.36822	1.36696	1.36665	1.3652
313.15 K, x1 = 0.0717	–	–	–	–	–	1.36787	1.36659	1.36629	1.36485
313.15 K, x1 = 0.1528	–	–	–	–	–	1.36718	1.3659	1.36561	1.36418
313.15 K, x1 = 0.1553	–	–	–	–	–	1.36718	1.3659	1.36561	1.36418
313.15 K, x1 = 0.1938	–	–	–	–	–	1.36694	1.36566	1.36537	1.36394
313.15 K, x1 = 0.2029	–	–	–	–	–	1.3664	1.36512	1.36482	1.36337
313.15 K, x1 = 0.245	–	–	–	–	–	1.36591	1.36465	1.36436	1.36294
313.15 K, x1 = 0.297	–	–	–	–	–	1.36507	1.36381	1.36351	1.36209
313.15 K, x1 = 0.2973	–	–	–	–	–	1.36529	1.36401	1.36372	1.3623
313.15 K, x1 = 0.3068	–	–	–	–	–	1.36504	1.36377	1.36347	1.36204
313.15 K, x1 = 0.398	–	–	–	–	–	1.3637	1.36244	1.36213	1.36071
313.15 K, x1 = 0.4609	–	–	–	–	–	1.36297	1.36172	1.36142	1.35999
313.15 K, x1 = 0.5434	–	–	–	–	1.36211	1.36206	1.36081	1.36051	1.35908
313.15 K, x1 = 0.6032	–	–	–	–	1.36136	1.3613	1.36007	1.35977	1.35834
313.15 K, x1 = 0.6371	–	–	–	–	1.36099	1.36094	1.3597	1.3594	1.358
313.15 K, x1 = 0.701	–	–	–	–	1.36025	1.36019	1.35895	1.35865	1.35723
313.15 K, x1 = 0.754	–	–	–	–	1.35981	1.35976	1.35851	1.35821	1.35681
313.15 K, x1 = 0.791	–	–	–	–	1.35941	1.35936	1.35812	1.35782	1.35641
313.15 K, x1 = 0.8296	–	–	–	–	1.35902	1.35897	1.35772	1.35742	1.35602
313.15 K, x1 = 0.8864	–	–	–	–	1.3589	1.35885	1.35758	1.35729	1.35589
313.15 K, x1 = 0.8903	–	–	–	–	1.35833	1.35827	1.35704	1.35674	1.35534
313.15 K, x1 = 0.9113	–	–	–	–	1.35809	1.35802	1.35679	1.3565	1.3551
313.15 K, x1 = 0.9547	–	–	–	–	1.35761	1.35756	1.35631	1.35601	1.3546
313.15 K, x1 = 0.973	–	–	–	–	1.35727	1.35722	1.35599	1.3557	1.35426
313.15 K, x1 = 0.9771	–	–	–	–	1.35715	1.3571	1.35587	1.35587	1.35416
313.15 K, x1 = 1	–	–	–	–	1.357	1.35694	1.35572	1.35543	1.35401
318.15 K, x1 = 0.0277	1.37668	1.37373	1.37036	1.36758	1.36611	1.36605	1.36479	1.36448	1.36305
318.15 K, x1 = 0.0507	1.37662	1.37367	1.3703	1.36752	1.36604	1.36598	1.36472	1.36443	1.363
318.15 K, x1 = 0.051	1.37654	1.3736	1.37024	1.36745	1.36598	1.36592	1.36464	1.36435	1.36292
318.15 K, x1 = 0.0717	1.37616	1.37322	1.36986	1.36708	1.36563	1.36557	1.36428	1.36398	1.36256
318.15 K, x1 = 0.1528	1.3755	1.37255	1.36919	1.36641	1.36495	1.36489	1.36364	1.36335	1.3619
318.15 K, x1 = 0.1553	1.3755	1.37255	1.36919	1.36641	1.36495	1.36489	1.36364	1.36335	1.3619
318.15 K, x1 = 0.1938	1.37525	1.37231	1.36894	1.36618	1.3647	1.36465	1.36338	1.36309	1.36166
318.15 K, x1 = 0.2029	1.37457	1.37164	1.36826	1.36546	1.36403	1.36398	1.36273	1.36243	1.361
318.15 K, x1 = 0.245	1.374	1.37107	1.36775	1.36498	1.36354	1.36348	1.36223	1.36194	1.36053
318.15 K, x1 = 0.297	1.37308	1.37014	1.36682	1.36402	1.36259	1.36254	1.36131	1.36101	1.35958
318.15 K, x1 = 0.2973	1.37334	1.3704	1.36706	1.36427	1.36283	1.36278	1.36153	1.36123	1.35982
318.15 K, x1 = 0.3068	1.37306	1.37013	1.36679	1.36402	1.3626	1.36255	1.36129	1.36098	1.35954
318.15 K, x1 = 0.398	1.37184	1.36891	1.36558	1.36283	1.36139	1.36134	1.36008	1.35978	1.35836
318.15 K, x1 = 0.4609	1.37087	1.36796	1.36464	1.36184	1.36044	1.36036	1.35912	1.35883	1.3574
318.15 K, x1 = 0.5434	1.36988	1.36693	1.36363	1.36086	1.35943	1.35938	1.35814	1.35784	1.35643
318.15 K, x1 = 0.6032	1.36911	1.36618	1.36282	1.36011	1.35865	1.3586	1.35735	1.35707	1.35568
318.15 K, x1 = 0.6371	1.36872	1.36578	1.36247	1.35971	1.35829	1.35824	1.35701	1.35671	1.35531
318.15 K, x1 = 0.701	1.36791	1.36501	1.36166	1.35892	1.35749	1.35743	1.35619	1.35591	1.35452
318.15 K, x1 = 0.754	1.36743	1.36453	1.36123	1.35847	1.35706	1.357	1.35577	1.35547	1.35407
318.15 K, x1 = 0.791	1.36699	1.36408	1.3608	1.35802	1.35663	1.35658	1.35537	1.35507	1.35364
318.15 K, x1 = 0.8296	1.36655	1.36364	1.36034	1.3576	1.35619	1.35614	1.35491	1.35461	1.3532
318.15 K, x1 = 0.8864	1.36644	1.36355	1.36022	1.35745	1.35605	1.35599	1.35478	1.35448	1.35309
318.15 K, x1 = 0.8903	1.36584	1.36294	1.35967	1.35689	1.35548	1.35543	1.35421	1.35391	1.35251
318.15 K, x1 = 0.9113	1.36554	1.36264	1.3594	1.35663	1.35521	1.35515	1.35395	1.35366	1.35225
318.15 K, x1 = 0.9547	1.3651	1.36222	1.35891	1.35618	1.35475	1.35469	1.35346	1.35317	1.3518
318.15 K, x1 = 0.973	1.3647	1.36182	1.35854	1.3558	1.35439	1.35433	1.35311	1.35281	1.35143
318.15 K, x1 = 0.9771	1.36468	1.36178	1.35849	1.35575	1.35433	1.35427	1.35304	1.35276	1.35139
318.15 K, x1 = 1	1.36447	1.36157	1.35832	1.35556	1.35416	1.35411	1.3529	1.35259	1.3512
